Test results: PubChem BioAssay AID2060510 (Molecular Pharmacology Branch, DTP, NCI, 2025)

Tested on: 439559-082-T-J2-PDC spheroids viability
Assay: Anticancer human tumor 439559-082-T-J2-PDC patient-derived colon adenocarcinoma cell line growth inhibition [GQUAD]
Conditions: for IC50: curve of first compound; for viability, T/C: stronger effect = lower value
Method in brief: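 Multi-cell-type spheroids of tumor cells with HUVEC and mesenchymal stem cells, treated with drug combinations. Concentrations descend in half-log steps from near clinical Cmax, or from 10 microM where Cmax is unknown; viability read-out.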

[1] = second compound 0.0316 µM, first compound 0.0316 µM
[2] = second compound 0.0316 µM, first compound 0.1 µM
[3] = second compound 0.0316 µM, first compound 0.316 µM
[4] = second compound 0.0316 µM, first compound 1 µM
[5] = second compound 0.0316 µM, first compound 3.16 µM
[6] = second compound 0.0316 µM, first compound 10 µM
[7] = second compound 0.1 µM, first compound 0.0316 µM
[8] = second compound 0.1 µM, first compound 0.1 µM
[9] = second compound 0.1 µM, first compound 0.316 µM
[10] = second compound 0.1 µM, first compound 1 µM
[11] = second compound 0.1 µM, first compound 3.16 µM
[12] = second compound 0.1 µM, first compound 10 µM
[13] = second compound 0.316 µM, first compound 0.0316 µM
[14] = second compound 0.316 µM, first compound 0.1 µM
[15] = second compound 0.316 µM, first compound 0.316 µM
[16] = second compound 0.316 µM, first compound 1 µM
[17] = second compound 0.316 µM, first compound 3.16 µM
[18] = second compound 0.316 µM, first compound 10 µM
[19] = second compound 1 µM, first compound 0.0316 µM
[20] = second compound 1 µM, first compound 0.1 µM
[21] = second compound 1 µM, first compound 0.316 µM
[22] = second compound 1 µM, first compound 1 µM
[23] = second compound 1 µM, first compound 3.16 µM
[24] = second compound 1 µM, first compound 10 µM
[25] = second compound 3.16 µM, first compound 0.0316 µM
[26] = second compound 3.16 µM, first compound 0.1 µM
[27] = second compound 3.16 µM, first compound 0.316 µM
[28] = second compound 3.16 µM, first compound 1 µM
[29] = second compound 3.16 µM, first compound 3.16 µM
[30] = second compound 3.16 µM, first compound 10 µM
[31] = second compound 10 µM, first compound 0.0316 µM
[32] = second compound 10 µM, first compound 0.1 µM
[33] = second compound 10 µM, first compound 0.316 µM
[34] = second compound 10 µM, first compound 1 µM
[35] = second compound 10 µM, first compound 3.16 µM
[36] = second compound 10 µM, first compound 10 µM
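Also: spheroids exposed to the agents for 7 days before readout.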
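For viability, T/C in this document: percent of luminescence signal in DMSO vehicle wells taken as 100% viability.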

Q: Which IC50 (second compound 0.0316 µM) does the source give for `C#Cc1c(F)ccc2cc(O)cc(-c3ncc4c(N5CC6CCC(C5)N6)nc(OCC56CCCN5CC(F)C6)nc4c3F)c12` (stereo unspecified) + CN(C)c1ccc(Nc2c3ccc(NC(=O)CCN4CCCC4)cc3nc3cc(NC(=O)CCN4CCCC4)ccc23)cc1 here?
A: > 10 µM

Q: And the IC50 (second compound 0.1 µM)?
A: 3.88 µM

Q: What about the IC50 (second compound 0.316 µM) of the same molecule?
A: 6.88 µM

Q: And the IC50 (second compound 1 µM)?
A: > 10 µM

Q: What about the IC50 (second compound 3.16 µM) of the same molecule?
A: 3.74 µM

Q: And the IC50 (second compound 10 µM)?
A: 3.18 µM

Q: And the viability, T/C [1]?
A: 83.6%

Q: What about the viability, T/C [2] of the same molecule?
A: 70.7%

Q: And the viability, T/C [3]?
A: 66%

Q: What about the viability, T/C [4] of the same molecule?
A: 60.1%

Q: And the viability, T/C [5]?
A: 56.1%

Q: What about the viability, T/C [6] of the same molecule?
A: 49.1%

Q: And the viability, T/C [7]?
A: 94%

Q: What about the viability, T/C [8] of the same molecule?
A: 68.5%

Q: What about the viability, T/C [9] of the same molecule?
A: 73.1%

Q: And the viability, T/C [10]?
A: 58.1%

Q: What about the viability, T/C [11] of the same molecule?
A: 54%

Q: And the viability, T/C [12]?
A: 42.6%

Q: And the viability, T/C [13]?
A: 79.3%

Q: What about the viability, T/C [14] of the same molecule?
A: 82.8%

Q: And the viability, T/C [15]?
A: 62.2%

Q: What about the viability, T/C [16] of the same molecule?
A: 62%

Q: And the viability, T/C [17]?
A: 55.5%

Q: What about the viability, T/C [18] of the same molecule?
A: 47.6%

Q: And the viability, T/C [19]?
A: 91.5%

Q: And the viability, T/C [20]?
A: 73.2%

Q: What about the viability, T/C [21] of the same molecule?
A: 64.6%

Q: What about the viability, T/C [22] of the same molecule?
A: 55.4%

Q: And the viability, T/C [23]?
A: 61.8%

Q: And the viability, T/C [24]?
A: 48.5%

Q: And the viability, T/C [25]?
A: 81.9%

Q: What about the viability, T/C [26] of the same molecule?
A: 75.3%

Q: What about the viability, T/C [27] of the same molecule?
A: 69.1%

Q: What about the viability, T/C [28] of the same molecule?
A: 52.4%

Q: What about the viability, T/C [29] of the same molecule?
A: 55.2%

Q: And the viability, T/C [30]?
A: 43.4%

Q: And the viability, T/C [31]?
A: 84.4%

Q: What about the viability, T/C [32] of the same molecule?
A: 77.7%

Q: What about the viability, T/C [33] of the same molecule?
A: 62.5%

Q: What about the viability, T/C [34] of the same molecule?
A: 54.7%

Q: And the viability, T/C [35]?
A: 56.4%

Q: And the viability, T/C [36]?
A: 40.7%

Q: What does the source list for `C=CCn1c(=O)c2cnc(Nc3ccc(N4CCN(C)CC4)cc3)nc2n1-c1cccc(C(C)(C)O)n1` + CN(C)c1ccc(Nc2c3ccc(NC(=O)CCN4CCCC4)cc3nc3cc(NC(=O)CCN4CCCC4)ccc23)cc1?
A: IC50 (second compound 0.0316 µM): 4.71 µM; IC50 (second compound 0.1 µM): 3.41 µM; IC50 (second compound 0.316 µM): 4.01 µM; IC50 (second compound 1 µM): 3.54 µM; IC50 (second compound 3.16 µM): 4.04 µM; IC50 (second compound 10 µM): 3.41 µM; viability, T/C [1]: 95%; viability, T/C [2]: 89.5%; viability, T/C [3]: 85.1%; viability, T/C [4]: 82.1%; viability, T/C [5]: 63.3%; viability, T/C [6]: 24.8%; viability, T/C [7]: 94.7%; viability, T/C [8]: 97.9%; viability, T/C [9]: 85%; viability, T/C [10]: 69.4%; viability, T/C [11]: 54.4%; viability, T/C [12]: 20.9%; viability, T/C [13]: 99.3%; viability, T/C [14]: 101%; viability, T/C [15]: 82.7%; viability, T/C [16]: 81%; viability, T/C [17]: 55.7%; viability, T/C [18]: 24.5%; viability, T/C [19]: 101%; viability, T/C [20]: 96.7%; viability, T/C [21]: 88.6%; viability, T/C [22]: 74.9%; viability, T/C [23]: 54.5%; viability, T/C [24]: 18.2%; viability, T/C [25]: 96.2%; viability, T/C [26]: 97.8%; viability, T/C [27]: 93.9%; viability, T/C [28]: 89.3%; viability, T/C [29]: 58.5%; viability, T/C [30]: 18.2%; viability, T/C [31]: 94.3%; viability, T/C [32]: 90.9%; viability, T/C [33]: 78.2%; viability, T/C [34]: 76.2%; viability, T/C [35]: 53.1%; viability, T/C [36]: 13.3%

Q: What does the source list for `CC(=O)O[C@H]1C(=O)[C@@]2(C)[C@H]([C@H](OC(=O)c3ccccc3)[C@]3(O)C[C@H](OC(=O)[C@H](O)[C@@H](NC(=O)c4ccccc4)c4ccccc4)C(C)=C1C3(C)C)[C@]1(OC(C)=O)CO[C@@H]1C[C@@H]2O` + CN(C)c1ccc(Nc2c3ccc(NC(=O)CCN4CCCC4)cc3nc3cc(NC(=O)CCN4CCCC4)ccc23)cc1?
A: IC50 (second compound 0.0316 µM): 2.03 µM; IC50 (second compound 0.1 µM): 1.83 µM; IC50 (second compound 0.316 µM): 2.04 µM; IC50 (second compound 1 µM): 1.79 µM; IC50 (second compound 3.16 µM): 2.18 µM; IC50 (second compound 10 µM): 1.36 µM; viability, T/C [1]: 84.8%; viability, T/C [2]: 77.7%; viability, T/C [3]: 74.5%; viability, T/C [4]: 62.8%; viability, T/C [5]: 41.7%; viability, T/C [6]: 29.9%; viability, T/C [7]: 85.1%; viability, T/C [8]: 83.7%; viability, T/C [9]: 74.2%; viability, T/C [10]: 60.9%; viability, T/C [11]: 40.3%; viability, T/C [12]: 31.6%; viability, T/C [13]: 84%; viability, T/C [14]: 82.3%; viability, T/C [15]: 69.7%; viability, T/C [16]: 60.4%; viability, T/C [17]: 44%; viability, T/C [18]: 30.7%; viability, T/C [19]: 76.2%; viability, T/C [20]: 82.9%; viability, T/C [21]: 70%; viability, T/C [22]: 64%; viability, T/C [23]: 36.9%; viability, T/C [24]: 28.9%; viability, T/C [25]: 82.1%; viability, T/C [26]: 84.6%; viability, T/C [27]: 78.9%; viability, T/C [28]: 65.8%; viability, T/C [29]: 42.5%; viability, T/C [30]: 26.7%; viability, T/C [31]: 73.5%; viability, T/C [32]: 73.9%; viability, T/C [33]: 86.2%; viability, T/C [34]: 56.6%; viability, T/C [35]: 36.7%; viability, T/C [36]: 27%
